Data on 1 molecule can be found in patent US20100267744A1, “Pharmaceutical Compositions” (Vertex Pharmaceuticals Incorporated, priority 2006, published 2010).

Series [1] can be described thus: in vivo. The conditions noted are these: rat, po.
The format of series [2] is physicochemical. From the text:
The manufacture of an amorphous solid dispersion containing VX-950 presented several challenges. […] Therefore, an appropriate solvent or solvent mixture is crucial to optimizing the processing and production of a solid dispersion.

A short description of series [3]: Chemical reactivity of VX-950 with alcohol solvents. The note with it: MeOH, EtOH, iPrOH. It counts as physicochemical. From the text:
The manufacture of an amorphous solid dispersion containing VX-950 presented several challenges. […] Therefore, an appropriate solvent or solvent mixture is crucial to optimizing the processing and production of a solid dispersion. In preferred processes, the solvent includes a volatile solvent. In some embodiments, the solvent includes a mixture of volatile solvents. Preferable solvents include those that can dissolve both VX-950 and the polymers. Suitable solvents include those described above, for example, methylene chloride, acetone, etc. In more preferred processes, the solvent is a mixture of methylene chloride and acetone. The percent weight ratio of methylene chloride:acetone can be for example, about 100:0, about 90:10, about 80:20, about 70:30, about 60:40, and is preferably about 80:20 or about 70:30. The solvent or solvent mixture can also contain a non volatile solvent, such as glacial acetic acid. The organic acid or polar solvent solvent can be, e.g., up to about 5%, up to about 10%, or up to about 15% by weight of the solvent mixture. For example, a solvent mixture can contain a percent weight ratio of methylene chloride:acetone:glacial acetic acid of about 67:28:5 or 63:27:10. […] Such a solvent should not contain an OH group or a similarly reactive moiety. In these processes, therefore, a preferred solvent is other than an alcohol.

Some results are limits rather than exact numbers.

`CCC[C@H](NC(=O)[C@@H]1[C@H]2CCC[C@H]2CN1C(=O)[C@@H](NC(=O)[C@@H](NC(=O)c1cnccn1)C1CCCCC1)C(C)(C)C)C(=O)C(=O)NC1CC1` [VX-950] displayed a bioavailability in series [1] of less than 0.5%. Further, in series [2], the aqueous solubility result is reported as “virtually undetectable”, the “pH dependence of aqueous solubility” value is “not pH-dependent”, the solubility in water result is “highly insoluble” and the “solubility in water or most other conventional organic solvents” value is “does not dissolve to a significant amount”. For the same molecule, the “chemical reactivity with alcohols” value in series [3] is “has shown chemical reactivity with some alcohols”.

One may read the bioavailability as dose-corrected exposure relative to a reference, in per cent. A higher bioavailability goes with good availability.
